Type in all cases: in vivo, SD rats
For test [1], the system named is rat model of hemolytic jaundice (acetylphenylhydrazine-induced). The test is described as follows: Detection of glutathione (GSH) by ELISA in rats with APH-induced hemolytic jaundice. The note with it: after 6 days of treatment, in words, compared with the model control group (data not shown). The method, then: Clean adult male SD rats, weighing 200 g-250 g. The following experiment was carried out mainly by referring to the method described in CN104739818A. In short, in the example, acetylphenylhydrazine (APH) was used as a modeling drug to construct a rat model of hemolytic jaundice, which was also a commonly used model for studying neonatal hemolytic jaundice at home and abroad. The most prominent feature of hemolytic jaundice was the collapse of the patient's red blood cells, causing hemolysis. […] At the same time, due to the rupture of red blood cells and the release of bilirubin, liver function was damaged. The mechanism and symptoms simulated by APH were similar to those of hemolytic jaundice. From 60 healthy SD rats with required body weight, 10 rats were randomly selected as the normal control group, and the remaining 50 rats were intraperitoneally injected with acetylphenylhydrazine (APH) at a dose of 150 mg/kg for 3 consecutive days, to construct the animal model of hemolytic jaundice induced by oxidation of red blood cells. […] In order to explore the mechanism for the possible therapeutic effect of CGA, the GSH level of rats in each group was detected in this example. […]
In general terms: ELISA stands for enzyme-linked immunosorbent assay.

The test system is the same in test [2]. The test is described as follows: Determination of total, direct and indirect bilirubin in rats with APH-induced hemolytic jaundice. The method, then:
(§1) Clean adult male SD rats, weighing 200 g-250 g. The following experiment was carried out mainly by referring to the method described in CN104739818A. In short, in the example, acetylphenylhydrazine (APH) was used as a modeling drug to construct a rat model of hemolytic jaundice, which was also a commonly used model for studying neonatal hemolytic jaundice at home and abroad. The most prominent feature of hemolytic jaundice was the collapse of the patient's red blood cells, causing hemolysis. […] At the same time, due to the rupture of red blood cells and the release of bilirubin, liver function was damaged. The mechanism and symptoms simulated by APH were similar to those of hemolytic jaundice. From 60 healthy SD rats with required body weight, 10 rats were randomly selected as the normal control group, and the remaining 50 rats were intraperitoneally injected with acetylphenylhydrazine (APH) at a dose of 150 mg/kg for 3 consecutive days, to construct the animal model of hemolytic jaundice induced by oxidation of red blood cells. […] 50 rats successfully modeled were randomly divided into 5 groups, 10 rats for each group, and the groups were respectively named as: model control group (n=10), CGA group (n=10), bifidobacteria+HMO group (n=10), CGA+bifidobacteria+HMO low-dose group (n=10), CGA+bifidobacteria+HMO high-dose group (n=10), together with the normal control group (n=10), a total of 6 experimental groups, including 60 rats. In the experiment, rats in each group were administered by gavage, while the blank group and the model group were given the solvent physiological saline by gavage. The administration time is 6 days. The composition and dosage of therapeutic drugs for each group were as follows: • (1) CGA group: CGA 60 mg/kg/day, administered by gavage with physiological saline as solvent. • (2) bifidobacteria+HMO group: Bifidobacterium brevis M16-V (6 mg/kg/day), lacto-N-neotetraose (3 mg/kg/day), and 6′-sialyllactose (3 mg/kg/day). The mixture of the above components was prepared according to the weight ratio, and using physiological saline as the solvent, the solution of the mixture was administered by gavage. • (3) CGA+bifidobacteria+HMO low-dose group: CGA (60 mg/kg/day), Bifidobacterium brevis M16-V (6 mg/kg/day), lacto-N-neotetraose (3 mg/kg/day), and 6′-sialyllactose (3 mg/kg/day). […] In this example, the activity of ALT (alanine aminotransferase) and AST (aspartate aminotransferase) was determined by rate method, while α-GST was detected using α-GST (α-glutathione s-transferase) detection kit; • (2) The blood sample stored in step (1) was taken out, and then bilirubin and direct bilirubin were detected by using the total bilirubin detection kit and the direct bilirubin detection kit.

Test [3] shares this test system. As to the kind of experiment: Activity assay of α-GST, ALT and AST in serum of rats with APH-induced hemolytic jaundice. On the procedure:
as §1

Setting [4] is: after 6 days of gavage, APH model rats, mean ± SD, n=10.
Setting [5] is: after 6 days of treatment, in words, compared with the model control group.
[6] abbreviates: serum, after 6 days of gavage, APH model rats, mean ± SD, n=10.

Regarding `O=C(/C=C/c1ccc(O)c(O)c1)O[C@@H]1C[C@](O)(C(=O)O)C[C@@H](O)[C@H]1O` [CGA, 3-O-caffeoylquinic acid], the “content of GSH in serum” value in test [1] is reported as “increased significantly”. In test [2] (setting [4]), this compound came in with a Direct bilirubin of 1.86 ± 0.85 µmol/L, an Indirect bilirubin of 1.51 µmol/L and a Total bilirubin of 3.37 ± 0.93 µmol/L. In addition, the “levels of direct bilirubin, indirect bilirubin and total bilirubin” value in test [2] (setting [5]) was “significantly decreased”. The “levels of α-GST, ALT, and AST in serum” value in test [3] (setting [5]) is on record as “significantly decreased”. In addition, in test [3] (setting [6]), the ALT was determined as 26.5 ± 3.8 U/L, the AST stood at 29.8 ± 5.1 U/L and the α-GST is on record as 20.9 ± 4.2.
